Measured values published in US6358883B1, “Pesticidal and parasiticidal use of 1-aryl-1-(substituted thio, sulfinyl and sulfonyl)-2-nitroethane compounds” (American Cyanamid Company, priority 1998, dated 2002).

Columns and labels:
Format in all cases: in vivo
[1] = test system: Spodoptera eridania, 2nd instar larvae, southern armyworm (SAW); assay: Southern armyworm (SAW) leaf dip test; set-up: key: 0 = no effect; 1 = 10-25% kill; 2 = 26-35% kill; 3 = 36-45% kill; 4 = 46-55% kill; 5 = 56-65% kill; 6 = 66-75% kill; 7 = 76-85% kill; 8 = 86-99% kill; 9 = 100% kill
Experimental: (§1) Test solutions are prepared by dissolving the test compound in a 35% acetone in water mixture to give a concentration of 10,000 ppm. Subsequent dilutions are made with water as needed.
Spodoptera eridania, 2nd Instar Larvae, Southern Armyworm (SAW)
A Sieva lima bean leaf expanded to 7-8 cm in length is dipped in the test solution with agitation for 3 seconds and allowed to dry in a hood. The leaf is then placed in a 100×10 mm petri dish containing a damp filter paper on the bottom and ten 2nd instar caterpillars. At 5 days, observations are made of mortality, reduced feeding, or any interference with normal molting.

[2] = test system: Aphis gossypii, cotton aphid (CA); assay: Cotton aphid (CA) cotyledon dip test; set-up: key: 0 = no effect; 1 = 10-25% kill; 2 = 26-35% kill; 3 = 36-45% kill; 4 = 46-55% kill; 5 = 56-65% kill; 6 = 66-75% kill; 7 = 76-85% kill; 8 = 86-99% kill; 9 = 100% kill; conditions: mortality after 5 days
Experimental: Test solutions are prepared by dissolving the test compound in a 35% acetone in water mixture to give a concentration of 10,000 ppm. Subsequent dilutions are made with water as needed. Aphis gossypii, Cotton Aphid (CA) Cotton plants at the cotyledon stage are selected and cut back to one plant per pot. A heavily infested leaf is taken from the main colony and placed on top of each cotyledon. The aphids are allowed to transfer to the host plant overnight. At the time of test treatment, the leaf used to transfer the aphids is removed and discarded. The cotyledons are dipped in the test solution and allowed to dry. After 5 days, mortality counts are made. [table]

[3] = test system: Diabrotica virgifera virgifera Leconte, 2nd instar western corn rootworm (WCR); assay: Western corn rootworm (WCR) soil test; set-up: key: 0 = no effect; 1 = 10-25% kill; 2 = 26-35% kill; 3 = 36-45% kill; 4 = 46-55% kill; 5 = 56-65% kill; 6 = 66-75% kill; 7 = 76-85% kill; 8 = 86-99% kill; 9 = 100% kill
Experimental: Test solutions are prepared by dissolving the test compound in a 35% acetone in water mixture to give a concentration of 10,000 ppm. Subsequent dilutions are made with water as needed. Diabrotica virgifera virgifera Leconte, 2nd Instar Western Corn Rootworm (WCR) One cc of fine talc is placed in a 30 mL wide-mouth screw-top glass jar. One mL of the appropriate acetone test solution is pipetted onto the talc so as to provide 1.25 mg of active ingredient per jar. The jars are set under a gentle air flow until the acetone is evaporated. The dried talc is loosened, 1 cc of millet seed is added to serve as food for the insects and 25 mL of moist soil is added to each jar. The jar is capped and the contents thoroughly mixed mechanically. Following this, ten 2nd instar rootworms are added to each jar and the jars are loosely capped to allow air exchange for the larvae. The treatments are held for 5 days when mortality counts are made. Missing larvae are presumed dead, since they decompose rapidly and cannot be found. The concentrations of active ingredient used in this test correspond approximately to 50 kg/ha. [table]

[4] = test system: Tetranychus urticae (OP-resistant strain), 2-spotted spider mite (TSM); assay: 2-spotted spider mite (TSM) plant dip test; set-up: key: 0 = no effect; 1 = 10-25% kill; 2 = 26-35% kill; 3 = 36-45% kill; 4 = 46-55% kill; 5 = 56-65% kill; 6 = 66-75% kill; 7 = 76-85% kill; 8 = 86-99% kill; 9 = 100% kill; conditions: mortality after 2 days
Experimental: as §1
Tetranychus urticae (OP-resistant strain), 2-spotted Spider Mite (TSM)
Sieva lima bean plants with primary leaves expanded to 7-8 cm are selected and cut back to one plant per pot. A small piece is cut from an infested leaf taken from the main colony and placed on each leaf of the test plants. This is done about 2 hours before treatment to allow the mites to move over to the test plant to lay eggs. The size of the cut, infested leaf is varied to obtain about 100 mites per leaf. At the time of test treatment, the piece of leaf used to transfer the mites is removed and discarded. The newly-infested plants are dipped in the test solution for 3 seconds with agitation and set in the hood to dry. After 2 days, one leaf is removed and mortality counts are made.

[5] = test system: M. incognita (Root Knot Nematode) larvae; assay: Evaluation of test compounds against M. incognita larvae in microtiter plate wells (movement score); conditions: larvae scored for movement after 20-24 hours; also: key: A score of '9' indicates inactive worms with a straight, sticklike morphology; A score of '8' indicates inactive worms with a limp, curled or curved morphology; A score of '7' indicates dead/paralyzed worms after 72 hours
Experimental: Evaluation of Test Compounds Against M. incognita (Root Knot Nematode)
Newly emerged M. incognita larvae are suspended in S Medium (buffered salt solution) to a concentration of 50-65 worms per 50 μl. 50 μl of the worm suspension are pipetted into microtiter plate wells containing the test compounds. The plates are then covered with plactic plate sealers to reduce loss of volume by evaporation. After 20-24 hours of incubation, the larvae are scored for movement. Wells containing obviously dead/paralyzed larvae are scored as positive. […] A score of “7” indicates dead/paralyzed worms after […].

[6] = test system: C. elegans (Bristol strain); assay: Evaluation of test compounds against C. elegans (motility, 96-well plate); set-up: key: 9=complete kill in 4 hours; 8=complete kill in 24 hours; 7=markedly reduced motility in approximately 95% of worms in 24 hours; 0=normal motility, same as controls; conditions: motility at 4 and 24 hours
Experimental: Evaluation of Test Compounds Against C. elegans Cultures of C. elegans (Bristol strain from J. Lewis) are maintained on E. coli lawns on NG Agar Plates at 20° C. New cultures are established weekly. Nematodes for testing are washed from cultures using Na buffer. Compounds are dissolved in 80% acetone. The test material is micropipetted (25 μl) into a single well of a 96-well sterile tissue culture plate and the solvent allowed to evaporate. A freshly prepared volume (50 μl) of C. elegans in Na buffer is micropipetted into each treated well and several control wells per plate. Plates are incubated at 20° C. Observations for efficacy are made under a dissecting microscope at 4 and 24 hours post-immersion. Immediately prior to reading the plate, it is gently tapped to stimulate the movement of the worms. Activity is judged subjectively, but semi-quantitatively, based on the drug effects on motility of the adults and larvae.

SMILES	SAW (300 ppm) rating [1]	CA (300 ppm) rating [2]	WCR (50 ppm) rating [3]	TSM (300 ppm) rating [4]	M. incognita (150 ppm) score [5]	Rating Against C. elegans (150 ppm) [6]
O=C(O)CSC(C[N+](=O)[O-])c1ccc(F)cc1 (stereo not shown) [Example 63]	0	0	0	0	9	9
O=C(O)CSC(C[N+](=O)[O-])c1ccc2c(c1)OCO2 (stereo not shown) [Example 64]	0	0	0	9 (9 = 100% kill)	9	9
Cc1ccc(C(C[N+](=O)[O-])SCC(=O)O)cc1 (stereo not shown) [Example 65]	0	0	9 (9 = 100% kill)	0	9	9
CC(C)c1ccc(C(C[N+](=O)[O-])SCC(=O)O)cc1 (stereo not shown) [Example 66]	0	0	8 (8 = 86-99% kill)	0	9	9
O=C(O)CSC(C[N+](=O)[O-])c1ccccc1F (stereo not shown) [Example 67]	0	0	9 (9 = 100% kill)	0	9	9
COc1cccc(C(C[N+](=O)[O-])SCC(=O)O)c1 (stereo not shown) [Example 68]	0	0	3 (3 = 36-45% kill)	0	9	8
COc1ccc(C(C[N+](=O)[O-])SCC(=O)O)cc1 (stereo not shown) [Example 69]	0	0	0	0	9	9
COC(=O)CSC(C[N+](=O)[O-])c1ccc(Cl)cc1 (stereo not shown) [Example 70]	0	0	0	0	9	7
C=CCSC(C[N+](=O)[O-])c1ccc(Cl)cc1 (stereo not shown) [Example 77]	0	–	0	3 (3 = 36-45% kill)	0	0
COC(=O)CSC(C[N+](=O)[O-])c1ccc(OC)cc1OC (stereo not shown) [Example 79]	–	–	–	–	0	7
COc1ccc(C(C[N+](=O)[O-])SCC(=O)N2CCOCC2)c(OC)c1 (stereo not shown) [Example 80]	–	–	–	–	0	7
COc1ccc(C(C[N+](=O)[O-])SCc2ccccc2)c(OC)c1 (stereo not shown) [Example 81]	–	–	–	–	0	7
NC(CSC(C[N+](=O)[O-])c1ccccc1)C(=O)O (stereo not shown) [Example 83]	–	–	–	–	9	9
COc1ccc(C(C[N+](=O)[O-])SCC(N)C(=O)O)c(OC)c1 (stereo not shown) [Example 84]	–	–	–	–	0	9
O=[N+]([O-])CC(SCC(O)CO)c1ccccc1 (stereo not shown) [Example 85]	–	–	–	–	9	7
COC(=O)CSC(C[N+](=O)[O-])c1ccc(OC)c(OC)c1 (stereo not shown) [Example 86]	–	–	–	–	0	0
COc1cc(OC)cc(C(C[N+](=O)[O-])SCC(O)CO)c1 (stereo not shown) [Example 87]	–	–	–	–	0	0
COC(=O)CSC(c1ccccc1)C(C)[N+](=O)[O-] (stereo not shown) [Example 150]	0	0	6 (6 = 66-75% kill)	0	–	–
CCOC(=O)CSC(c1ccccc1)C(C)[N+](=O)[O-] (stereo not shown) [Example 151]	0	0	0	0	–	–
COC(=O)CSC(C[N+](=O)[O-])c1ccc(F)c(F)c1 (stereo not shown) [Example 152]	0	0	7 (7 = 76-85% kill)	0	–	–
CCOC(=O)CSC(C[N+](=O)[O-])c1ccc(F)c(F)c1 (stereo not shown) [Example 153]	0	0	0	0	–	–
CCCOC(=O)CSC(C[N+](=O)[O-])c1ccc(F)c(F)c1 (stereo not shown) [Example 154]	0	0	0	0	–	–
CC(C)OC(=O)CSC(C[N+](=O)[O-])c1ccc(F)c(F)c1 (stereo not shown) [Example 155]	0	0	0	3 (3 = 36-45% kill)	–	–
O=[N+]([O-])CC(SCc1ccco1)c1ccccc1 (stereo not shown) [Example 156]	0	0	0	0	–	–
O=[N+]([O-])CC(SCc1ccco1)c1ccc2c(c1)OCO2 (stereo not shown) [Example 159]	0	0	0	0	–	–
CC(C(SCC(=O)O)c1ccccc1)[N+](=O)[O-] (stereo not shown) [Example 161]	0	0	4 (4 = 46-55% kill)	0	–	–
CCCCOC(=O)CSC(c1ccccc1)C(C)[N+](=O)[O-] (stereo not shown) [Example 162]	0	0	6 (6 = 66-75% kill)	0	–	–
